The values below come from patent US11572590B2, “Methods for evaluating tumor cell spheroids using 3D microfluidic cell culture device” (Dana-Farber Cancer Institute, Inc., priority 2017, dated 2023).

The inhibition is the relative decrease from the control value, in per cent. Usually IC50 stands for the midpoint of a concentration-inhibition curve.

For this experiment, the target named is T1, IKKε (IKBKE) (Homo sapiens, UniProt Q14164).
T1 sequence (Q14164 1-716): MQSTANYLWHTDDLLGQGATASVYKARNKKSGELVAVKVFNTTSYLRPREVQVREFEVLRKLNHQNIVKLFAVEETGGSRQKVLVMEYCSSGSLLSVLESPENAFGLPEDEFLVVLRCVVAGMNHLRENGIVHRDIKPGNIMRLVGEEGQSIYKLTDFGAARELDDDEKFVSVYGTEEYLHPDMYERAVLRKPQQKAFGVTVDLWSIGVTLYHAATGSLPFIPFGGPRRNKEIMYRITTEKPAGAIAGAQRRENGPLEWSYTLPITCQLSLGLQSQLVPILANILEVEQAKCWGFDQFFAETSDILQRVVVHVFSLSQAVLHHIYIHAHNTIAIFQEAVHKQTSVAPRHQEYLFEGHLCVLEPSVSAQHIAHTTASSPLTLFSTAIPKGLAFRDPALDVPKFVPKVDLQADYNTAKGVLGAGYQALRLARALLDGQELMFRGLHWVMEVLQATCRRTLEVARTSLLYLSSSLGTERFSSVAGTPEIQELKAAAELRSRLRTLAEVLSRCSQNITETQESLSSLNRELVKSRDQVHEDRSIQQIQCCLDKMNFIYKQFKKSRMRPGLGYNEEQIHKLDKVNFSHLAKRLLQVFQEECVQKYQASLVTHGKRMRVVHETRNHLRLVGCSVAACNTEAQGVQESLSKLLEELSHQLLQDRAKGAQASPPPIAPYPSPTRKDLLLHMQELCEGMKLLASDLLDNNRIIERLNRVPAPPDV
Nature of the experiment: SelectScreen Kinase Profiling, IC50 for IKKε (IKBKE). In kind it is biochemical. The settings on record: ATP Km app, ZLYTE; for inhibition: IKBKE (IKK epsilon). How it is done: Biochemical single point inhibition and IC50 concentrations for TBK1, IKKε (IKBKE), and off-target kinases were determined at ThermoFisher Scientific using SelectScreen Kinase Profiling Services (Madison, Wis., USA) (Tables S4A and S4B-1-7). To determine cellular potency, the human colorectal cancer carcinoma cell line HCT116 (ATCC, Manassas, Va.) was maintained in T175 flasks in complete RPMI medium; RPMI 1640 supplemented with 10% FBS, 1× Penicillin-Streptomycin solution and 1×MEM (non-essential amino acids). HCT116 cells were grown to 90-95% confluency in T175 flasks containing complete RPMI medium and transfected in bulk using Lipofectamine 2000 (Invitrogen, Carlsbad, Calif.) with 70 μg of ISG54-luciferase reporter plasmid (Elim Biopharmaceuticals Inc., Hayward, Calif.). The reporter plasmid contains a luciferase gene expression cassette under the transcriptional regulation of the promoter of the human interferon stimulated gene 54 (ISG54). Transfection of the cells was allowed to take place for 6 hours, after which the cells were harvested by treatment with 0.25% trypsin EDTA (Corning Inc., Corning, N.Y.). Trypsinized cells were added to 384-well poly-d-lysine treated black clear bottom tissue culture assay plates (Greiner Bio-One GmbH, Kremsmünster, Austria) at a density of 20,000 cells/well in 80 μL of complete RPMI medium and incubated overnight. After 16-18 hours post-transfection, the assay plates were washed with PBS (Corning Inc., Corning, N.Y.), followed by addition of 80 μL/well of serum-free RPMI 1640 medium containing 1× Penicillin-Streptomycin solution, 1×MEM and 350 nL of DMSO or titrations of Compound 1. Compound 1 titrations were generated by 1.5-fold dilution steps in two overlapping serial dilution series to generate a 40-point compound dose range. After incubation at 37° C. for 1 hour, the cells were stimulated with Poly(I:C) (InvivoGen, San Diego, Calif.) at a final concentration of 15 μg/mL in Optimem media (Life Technologies, Rockville, Md.). The assay plates were incubated for 5 hours at 37° C., followed by addition of One-Glo luciferase firefly reagent (Promega, Madison, Wis.) at 1:1 volume/well and luminescence was measured in an EnVision Multilabel Plate Reader (PerkinElmer, Santa Clara, Calif.). The EC50 values were calculated from the fit of the dose-response curves to a four-parameter equation. All EC50 values represent geometric mean values of a minimum of four determinations.

The structures appear in SMILES notation. Like-named read-outs stand apart in the source and are kept apart here.

In turn, `N#Cc1cc(-c2ncnc(Nc3ccc(N4CCN(C5COC5)CC4)cc3)n2)ccc1OC1CCOCC1` [Compound 1, 5-(4-((4-(4-(oxetan-3-yl)piperazin-1-yl)phenyl)amino)-1,3,5-triazin-2-yl)-2-((tetrahydro-2H-pyran-4-yl)oxy)benzonitrile] registered a Hillslope of 1.06 and an IC50 of 5.59 nM. The inhibition (read-out: % Inhibition 1) was 106%. Besides, the inhibition (read-out: % Inhibition 2) came to 103%. The inhibition (read-out: % Inhibition Avg) was 105%. In addition, the “fold selectivity (IKBKE)” value (IC50 relative to IKBKE IC50) is given as 1.0 fold. In addition, the “fold selectivity (TBK1)” value (IC50 relative to TBK1 IC50) came to 5.4 fold.
